The text below walks through data of patent US11083709B2, “Compounds, compositions, and methods of increasing CFTR activity” (Proteostasis Therapeutics, Inc., priority 2015, dated 2021).

The target in test [1] is T1, ΔF508-CFTR (Homo sapiens, UniProt P13569, DEL508-508).
T1 construct: primary lung epithelial cells (hBEs) homozygous for the Cystic Fibrosis-causing ΔF508 mutation; endogenous in cells; host or cells: primary lung epithelial cells (hBEs) homozygous for ΔF508
The test can be described thus: hBE equivalent current (Ieq) assay, primary lung epithelial cells homozygous for ΔF508. The format is cell-based. Conditions: compound at 10 uM and VX-809 at 1 uM, relative to VX-809 (1 uM); 24 h treatment. As to the method: Primary lung epithelial cells homozygous for the Cystic Fibrosis-causing ΔF508 mutation were differentiated for a minimum of 4 weeks in an air-liquid interface on Costar 24 well HTS filter plates prior to the equivalent current (Ieq) measurements. Cells were apically mucus-washed for 30 minutes 24h prior to treatment with compounds. The basolateral media was removed and replaced with media containing the compound of interest diluted to its final concentration from DMSO stocks. Treated cells were incubated at 37° C. and 5% CO2 for 24 hours. At the end of the treatment period, the media was changed to the Ieq experimental solution for 30 minutes before the experiment and plates are maintained in a CO2-free incubator during this period. The plates containing the cells were then placed in pre-warmed heating blocks at 36° C.±0.5 for 15 minutes before measurements are taken. The transepithelial voltage (VT) and conductance (GT) were measured using a custom 24 channel current clamp (TECC-24) with 24 well electrode manifold. The Ieq assay measurements were made following additions with standardized time periods: • 1. The baseline VT and GT values were measured for approximately 20 minutes. • 2. Benzamil was added to block ENaC for 15 minutes. • 3. Forskolin plus VX-770 (ivacaftor) were added to maximally activate ΔF508-CFTR for 27 minutes. • 4. Bumetanide was added to inhibit the NaK2Cl cotransporter and shut-off secretion of chloride.
The activity data captured was the area under the curve (AUC) for the traces of the equivalent chloride current. The AUC was collected from the time of the forskolin/VX-770 addition until the inhibition by bumetanide addition. Correction in response to compound treatment was scored as the increase in the AUC for compound-treated samples over that of vehicle-treated samples.
The results are shown below in Table 2. ++ indicates activity ≥25% run at 10 uM of VX-809 at 1 uM, + indicates activity 10 to <25% run at 10 uM of VX-809 at 1 uM, ** indicates activity ≥200% of VX-809 (1 uM) with compound at 10 uM and VX-809 at 1 uM; * indicates activity 100-200% of VX-809 (1 uM) with compound at 10 uM and VX-809 at 1 uM. ^## indicates activity ≥200% of VX-809 (3 uM) with compound at 10 uM and VX-809 at 3 uM; ^# indicates activity 100-200% of VX-809 (3 uM) with compound at 10 uM and VX-809 at 3 uM.

The target of test [2] is T1, ΔF508-CFTR. Briefly: Ussing measurements, hBEs homozygous for ΔF508. The format is cell-based. Conditions: compound at 10 uM and VX-809 at 3 uM, relative to VX-809 (3 uM); 24 h treatment. As to the method:
As discussed above, Ussing measurements can be used to measure CFTR activity. In this example, primary lung epithelial cells (hBEs) homozygous for the Cystic Fibrosis-causing ΔF508 mutation were differentiated for a minimum of 4 weeks in an air-liquid interface on SnapWell filter plates prior to the Ussing measurements. Cells were apically mucus-washed for 30 minutes prior to treatment with compounds. The basolateral media was removed and replaced with media containing the compound of interest diluted to its final concentration from DMSO stocks. Treated cells were incubated at 37° C. and 5% CO2 for 24 hours. […] The short-circuit current was measured in voltage clamp-mode (Vhold=0 mV), and the entire assay was conducted at a temperature of 36° C.-36.5° C. Once the voltages stabilized, the chambers were clamped, and data was recorded by pulse readings every 5 seconds. Following baseline current stabilization, the following additions were applied and the changes in current and resistance of the cells was monitored: • 1. […]
The inhibitable current (that current that is blocked by CFTRinh-172) is measured as the specific activity of the ΔF508-CFTR channel, and increases in response to compound in this activity over that observed in vehicle-treated samples are identified as the correction of ΔF508-CFTR function imparted by the compound tested. […]

Molecules are shown by their SMILES.

T1 sequence (P13569 with tags, fused parts or gaps DEL508-508): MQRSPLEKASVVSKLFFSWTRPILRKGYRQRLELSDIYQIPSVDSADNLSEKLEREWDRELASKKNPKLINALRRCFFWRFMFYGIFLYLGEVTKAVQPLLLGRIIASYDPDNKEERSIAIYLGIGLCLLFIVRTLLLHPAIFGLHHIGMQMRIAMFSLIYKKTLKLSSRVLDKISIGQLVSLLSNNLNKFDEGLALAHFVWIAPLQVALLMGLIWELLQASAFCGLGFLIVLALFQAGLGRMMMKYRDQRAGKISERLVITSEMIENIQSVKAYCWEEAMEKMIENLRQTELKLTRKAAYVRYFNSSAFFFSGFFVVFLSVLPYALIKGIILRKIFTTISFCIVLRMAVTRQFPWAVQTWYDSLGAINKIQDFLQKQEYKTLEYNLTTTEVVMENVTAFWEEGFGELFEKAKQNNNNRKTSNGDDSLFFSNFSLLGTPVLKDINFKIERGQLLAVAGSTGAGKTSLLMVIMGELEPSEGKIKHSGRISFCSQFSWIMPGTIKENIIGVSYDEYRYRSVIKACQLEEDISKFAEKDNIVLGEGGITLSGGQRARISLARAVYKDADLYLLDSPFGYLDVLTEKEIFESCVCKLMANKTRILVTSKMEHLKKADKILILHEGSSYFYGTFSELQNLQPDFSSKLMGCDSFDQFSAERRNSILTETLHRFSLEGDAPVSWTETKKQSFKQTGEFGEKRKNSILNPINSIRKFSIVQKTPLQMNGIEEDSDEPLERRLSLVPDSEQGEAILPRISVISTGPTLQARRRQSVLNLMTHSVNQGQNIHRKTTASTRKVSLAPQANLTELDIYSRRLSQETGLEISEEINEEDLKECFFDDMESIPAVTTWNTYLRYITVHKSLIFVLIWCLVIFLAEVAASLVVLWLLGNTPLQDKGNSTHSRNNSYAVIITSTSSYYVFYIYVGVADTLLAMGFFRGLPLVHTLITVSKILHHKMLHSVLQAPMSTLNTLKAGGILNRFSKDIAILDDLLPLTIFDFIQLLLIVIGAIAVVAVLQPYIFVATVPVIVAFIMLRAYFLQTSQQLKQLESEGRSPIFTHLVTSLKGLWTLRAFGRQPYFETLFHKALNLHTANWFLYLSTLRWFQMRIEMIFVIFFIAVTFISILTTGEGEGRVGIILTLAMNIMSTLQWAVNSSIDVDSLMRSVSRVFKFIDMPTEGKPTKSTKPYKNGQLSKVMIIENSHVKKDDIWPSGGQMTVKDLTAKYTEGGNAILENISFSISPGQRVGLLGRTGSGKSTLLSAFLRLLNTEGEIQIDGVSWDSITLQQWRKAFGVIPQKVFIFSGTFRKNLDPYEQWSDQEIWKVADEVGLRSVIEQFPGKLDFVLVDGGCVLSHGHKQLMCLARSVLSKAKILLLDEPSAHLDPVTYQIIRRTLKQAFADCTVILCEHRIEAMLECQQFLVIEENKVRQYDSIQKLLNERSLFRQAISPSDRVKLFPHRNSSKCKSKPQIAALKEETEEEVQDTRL

As to `C[C@@H](O)c1nnc([C@H]2C[C@H](NC(=O)c3cc(-c4ccccc4)no3)C2)o1` [Example 6, N-(trans-3-(5-((R)-1-hydroxyethyl)-1,3,4-oxadiazol-2-yl)cyclobutyl)-3-phenylisoxazole-5-carboxamide], the “leq: activity of compound with VX-809, % of VX-809 (AUC of equivalent chloride current)” value at ΔF508-CFTR [1] was “* (* indicates activity 100-200% of VX-809 (1 uM) with compound at 10 uM and VX-809 at 1 uM)”. Moreover, the “Ussing: activity of compound with VX-809, % of VX-809” value on ΔF508-CFTR [2] was “## (## indicates activity ≥200% of VX-809 (3 uM) with compound at 10 uM and VX-809 at 3 uM)”.
